# Reference: article PMC5622171 (Nature Communications, 2017)
# Entries after “also recorded” stand apart in the source; their conditions may differ.
# Tests used:
# CYP3A4 = CYP3A4 protein levels in primary human hepatocytes (western blot); type: cell-based
# Description: Cells were rinsed once with cold PBS then lysed in RIPA lysis buffer (Thermo Fisher Scientific) containing protease inhibitor (Roche). Mouse liver samples were homogenized in 500 μl of cold RIPA lysis buffer in a Bullet Blender Blue homogenizer (Next Advance, Averill Park, NY). Then, 25 μg of total protein lysates were loaded onto NuPAGE 4%–12% Bis-Tris gels (Invitrogen) with NuPAGE MES SDS running buffer (Invitrogen). The proteins were transferred from the gel to a nitrocellulose membrane by using the iBlot gel-transfer system (Invitrogen). The membrane was then blocked for 1 h with Odyssey Blocking Buffer (LI-COR Biosciences, Lincoln, NE) and probed with mouse monoclonal antibodies against CYP3A4 (K03; stock concentration: 2.5 mg ml^−1, diluted 1:5000)[51], MDR1 (D-11; Cat. No. sc-55510, Santa Cruz Biotechnology, Santa Cruz, CA; stock concentration: 0.2 mg ml^−1, diluted 1:1500), hPXR (H-11; Cat. No. sc-48340, Santa Cruz Biotechnology; stock concentration: 0.2 mg ml^−1, diluted 1:400), mouse Cyp3a (Cat. No. MAB10041, Millipore, Temecula, CA; Lot No. 1957980, diluted 1:1000), or β-actin (Cat. No. A5441, Sigma; Lot No. 043M4840V, diluted 1:5000). […] The relative intensity of each protein band was then determined by normalizing the intensity of each protein band to that of actin. […]
# LS1034 cells = assay: CellTiter-Glo cytotoxicity assay; conditions: 10 µM SPA70
# Description: For the LS180, SNU-C4 and LS1034 cytotoxicity assays, cells were seeded in a 96-well plate (Corning) at 4000 cells per well. […] Cell viability was assessed using the CellTiter-Glo assay.
# hPXR–NCoR = target: T1, hPXR–NCoR (Homo sapiens, UniProt O75469); type: biochemical
# T1 construct: 5 nM GST-hPXR-LBD; purchased Thermo Fisher Scientific
# T1 sequence (O75469 146-433 limits assumed): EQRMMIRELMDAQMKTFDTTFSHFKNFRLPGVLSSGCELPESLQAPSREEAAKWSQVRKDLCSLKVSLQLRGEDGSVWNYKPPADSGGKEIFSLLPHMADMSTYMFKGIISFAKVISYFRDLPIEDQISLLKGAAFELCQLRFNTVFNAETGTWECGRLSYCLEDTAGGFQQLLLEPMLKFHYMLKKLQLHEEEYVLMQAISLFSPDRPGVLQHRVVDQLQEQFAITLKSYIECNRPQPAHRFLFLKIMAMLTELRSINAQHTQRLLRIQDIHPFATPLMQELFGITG
# T1 sequence (O75376 2256-2278 partner limits assumed): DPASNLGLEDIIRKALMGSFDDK
# Hepa 1-6 cells = assay: One- and 3-day cytotoxicity assay; type: cell-based, mouse; conditions: Hepa 1-6, one- and 3-day
# Description: After the plated had been incubated for 24 or 72 h at 37 °C, the cytotoxicity was determined using a CellTiter-Glo luminescent cell viability assay (Promega). […] The final DMSO concentration was 0.5% for all wells.
# mPXR = target: T2, mPXR (Mus musculus, UniProt O54915); assay: mPXR transactivation assay; type: cell-based; conditions: only at concentrations higher than 5 µM
# T2 construct: host or cells: Hepa 1-6
# T2 sequence (O54915 whole entry): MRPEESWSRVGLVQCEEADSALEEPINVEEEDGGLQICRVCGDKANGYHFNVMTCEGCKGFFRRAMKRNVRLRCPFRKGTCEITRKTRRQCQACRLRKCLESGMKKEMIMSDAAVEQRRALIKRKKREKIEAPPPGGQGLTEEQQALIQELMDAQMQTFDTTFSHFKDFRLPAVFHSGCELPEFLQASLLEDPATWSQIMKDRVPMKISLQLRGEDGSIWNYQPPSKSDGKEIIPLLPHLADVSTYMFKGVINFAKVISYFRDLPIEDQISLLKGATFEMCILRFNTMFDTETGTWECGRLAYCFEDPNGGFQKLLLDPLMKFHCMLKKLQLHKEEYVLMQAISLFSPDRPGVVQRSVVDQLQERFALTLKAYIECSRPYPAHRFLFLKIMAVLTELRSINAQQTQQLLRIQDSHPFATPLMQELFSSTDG
# Description: For the mPXR transactivation assay, Hepa 1-6 cells were co-transfected with pCMV6-mPXR (Cat. No. MR226044, OriGene Technologies, Rockville, MD), pGL3-CYP3A4-luc and pRL-TK by using Lipofectamine 3000. […] The relative luciferase activity was determined by normalizing the firefly luciferase signal to the Renilla luciferase signal. The final DMSO concentration was 0.3% in all assay wells. In the agonistic assays, 10 μM PCN and DMSO were used as the positive (100% activation) and negative control (0% activation), respectively. […] Compound activity was normalized to the controls.
# CYP3A4 promoter = assay: hPXR-CYP3A4-luc reporter mice (hydrodynamic injection), bioluminescence imaging; type: in vivo, mouse; conditions: transient transgenic mice, SPA70 150 mg kg−1, RIF 10 mg kg−1
# Description: For the hydrodynamic injections, treatment, and in vivo imaging, in vivo delivery of the CYP3A4-luc reporter gene and the hPXR gene into mouse liver was performed using the hydrodynamic injection method described previously, [53], [54]. Briefly, by a rapid (5–10 s) tail-vein injection, each mouse received 25 μg of linearized CYP3A4-luc plasmid DNA with linearized hPXR plasmid DNA in sterile saline in a volume equal to 10% of its body weight. Imaging for luciferase activity was performed 2–8 weeks after somatic gene transfer (the bioluminescence was stable in the mice during the 2–8 weeks period). Fifteen mice were given i.p. injections of VivoGlo luciferin (Promega) (150 mg kg^−1 of body weight), anesthetized with 2.5% isoflurane, and imaged 10 min later in a Xenogen IVIS 200 system (Xenogen) to obtain a basal image. […] The mice were imaged 10 h after the last treatment in each round. The Living Image 3.2 software (Xenogen) was used to analyze the total photon flux of uniform regions of interest drawn around the liver. The CYP3A4-luc reporter activity (expressed as induction rate) was determined by using the total photon flux from the same mouse before and after treatment: induction rate = total photon flux (after treatment)/total photon flux (before treatment).
# MST2 = target: T3, MST2 (Homo sapiens, UniProt Q13188); assay: KINOMEscan kinase profiling; type: binding
# T3 construct: purchased Ambit Biosciences, now part of DiscoveryX
# T3 sequence (Q13188 whole entry): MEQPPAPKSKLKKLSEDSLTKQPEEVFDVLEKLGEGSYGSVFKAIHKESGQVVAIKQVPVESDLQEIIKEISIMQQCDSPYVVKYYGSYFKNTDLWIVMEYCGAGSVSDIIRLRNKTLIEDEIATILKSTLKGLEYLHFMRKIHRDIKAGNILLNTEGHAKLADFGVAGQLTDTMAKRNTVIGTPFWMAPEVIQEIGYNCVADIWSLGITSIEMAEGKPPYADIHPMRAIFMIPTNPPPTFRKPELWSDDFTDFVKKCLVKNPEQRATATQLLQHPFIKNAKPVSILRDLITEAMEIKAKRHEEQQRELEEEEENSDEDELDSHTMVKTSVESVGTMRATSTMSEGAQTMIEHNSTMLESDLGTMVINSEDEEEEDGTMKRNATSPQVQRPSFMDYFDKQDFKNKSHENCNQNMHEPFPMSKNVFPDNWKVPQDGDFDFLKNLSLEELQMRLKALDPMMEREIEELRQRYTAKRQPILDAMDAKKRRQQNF
# Description: (§1) Kinase inhibition profiling assays. The kinase inhibition profiling assay (KINOMEscan) was performed by Ambit Biosciences, now part of DiscoveryX (Fremont, CA) in accordance with the […]
# (§2) published protocol20, 21. […] If the inhibition of a kinase was greater […]
# (§3) dilutions) starting from 30 µM.
# TTK = target: T4, TTK (Homo sapiens, UniProt P33981); assay: KINOMEscan kinase profiling; type: binding; conditions: read-out: %Inhibition by 10 μM SPA70
# T4 construct: purchased DiscoverX (Ambit Biosciences) KINOMEscan
# T4 sequence (P33981 whole entry): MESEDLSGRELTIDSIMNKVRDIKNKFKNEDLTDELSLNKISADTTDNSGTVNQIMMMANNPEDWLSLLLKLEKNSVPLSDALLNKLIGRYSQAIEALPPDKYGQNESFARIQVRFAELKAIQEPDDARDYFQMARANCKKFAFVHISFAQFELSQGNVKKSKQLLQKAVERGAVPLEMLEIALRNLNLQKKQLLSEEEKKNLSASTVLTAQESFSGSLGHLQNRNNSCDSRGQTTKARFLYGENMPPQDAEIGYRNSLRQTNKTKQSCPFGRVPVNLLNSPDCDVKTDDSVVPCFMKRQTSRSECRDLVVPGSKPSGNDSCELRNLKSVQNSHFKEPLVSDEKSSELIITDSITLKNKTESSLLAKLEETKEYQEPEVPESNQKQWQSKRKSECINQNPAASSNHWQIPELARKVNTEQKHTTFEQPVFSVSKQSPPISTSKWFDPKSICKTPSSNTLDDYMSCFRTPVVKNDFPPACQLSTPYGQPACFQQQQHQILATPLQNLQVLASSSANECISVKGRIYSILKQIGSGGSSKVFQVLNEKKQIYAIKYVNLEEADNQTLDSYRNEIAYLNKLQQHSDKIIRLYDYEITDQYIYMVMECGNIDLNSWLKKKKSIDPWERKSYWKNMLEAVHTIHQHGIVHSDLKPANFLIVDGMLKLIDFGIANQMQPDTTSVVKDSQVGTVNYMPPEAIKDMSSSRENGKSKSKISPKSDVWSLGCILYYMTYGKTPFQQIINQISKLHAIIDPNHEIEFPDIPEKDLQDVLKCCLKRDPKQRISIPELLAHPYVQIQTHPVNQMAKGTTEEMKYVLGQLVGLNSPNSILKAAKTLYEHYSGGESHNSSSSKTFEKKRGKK
# Description: as §1, §2, §3
# [1] = test system: hPXR transcriptional target genes; assay: DNA microarray analysis in primary human hepatocytes; type: cell-based; conditions: 2.5 μM SPA70, 48 h
# From the text: In each case, total RNA was extracted using a Qiagen RNeasy Mini Kit and amplified and labeled by using an One-Color Low Input Quick Amp Labeling Kit (Agilent, Santa Clara, CA, catalog no. 5190-2305), after which it was hybridized to the SurePrint G3 Human GE 8 × 60 K microarray (Agilent-028004), which contains 42,545 unique probes targeting 27,958 Entrez genes. Microarrays were scanned with an Agilent array scanner (G2565CA) at 3-μm resolution. Microarray data were extracted by Agilent Feature Extraction software (v10.5.1.1). Quantile normalization of log-transformed, background-subtracted signal intensity was performed for all samples. This was followed by comparisons between sets of replicates from different experimental groups. Student’s t-test was used to determine the statistical significance of the difference between the paired samples from three replicates of each experiment. […] The data processing and PCA analysis were performed using Partek software (St. Louis, MO)[52]. The GEO accession number for the microarray analysis is GSE90122.
smiles,measurement,setting,value
COc1ccc(OC)c(-n2nnc(S(=O)(=O)c3ccc(C(C)(C)C)cc3)c2C)c1 [SPA70],Effect on CYP3A4 induction by SR12813 and T090137,"CYP3A4; 2.5 μM SPA70, 0.1 μM SR12813 or 0.03 μM T090137, 48 h",able to block the CYP3A4-inducing effect
same,Effect on CYP3A4 induction by rifampicin,"CYP3A4; 2.5 μM SPA70, 1 μM rifampicin, 48 h",substantially blocked
same,Sensitization of LS1034 cells to paclitaxel and vincristine,LS1034 cells,sensitized LS1034 cells to both paclitaxel and vincristine
same,Effect on hPXR–NCoR interactions,hPXR–NCoR,enhanced the hPXR–NCoR interactions
same,Cytotoxicity,Hepa 1-6 cells,marginal cytotoxicity
same,mPXR agonism,mPXR,very weak mPXR agonist; also recorded: weak agonist of mPXR
same,Effect on rifampicin-induced activation of the CYP3A4 promoter,CYP3A4 promoter,effectively blocked the rifampicin-induced activation of the CYP3A4 promoter
same,Kd,MST2; 11-point 3-fold serial dilutions starting from 30 µM,> 30 µM
same,inhibition at 10 µM,MST2; read-out: %Inhibition by 10 μM SPA70,62%
same,inhibition at 10 µM,TTK,0%
same,"Effect on induction of hPXR transcriptional target genes by rifampicin, SR12813 and T090137",[1],blocked their induction
